What is called IC50 is the concentration that gives 50% inhibition. A high value points to weaker potency in that assay.

The target in one assay is ROCK1 (Homo sapiens, UniProt Q13464). Kind of assay: ROCK1 kinase enzymatic activity (HTRF, STK2 substrate). It is filed as biochemical. The note with it: ROCK1 kinase reacted at room temperature for 20 minutes. From the text: (§1) The kinase activity data was expressed by comparing the kinase activity of the test compound and that of the blank group (containing only DMSO), and the IC50 value was obtained by curve fitting using Prism software (GraphPad7.0).

For the next assay, the target named is ROCK2 (Homo sapiens, UniProt O75116). Kind of assay: ROCK2 kinase enzymatic activity (HTRF, STK2 substrate). It is filed as biochemical. As to conditions: ROCK2 kinase reacted at room temperature for 30 minutes.
Text: as §1
A general note: Time-resolved FRET reads energy transfer from a long-lived donor to a nearby acceptor.

Structures are written as SMILES.

ROCK2, sequence (O75116 whole entry): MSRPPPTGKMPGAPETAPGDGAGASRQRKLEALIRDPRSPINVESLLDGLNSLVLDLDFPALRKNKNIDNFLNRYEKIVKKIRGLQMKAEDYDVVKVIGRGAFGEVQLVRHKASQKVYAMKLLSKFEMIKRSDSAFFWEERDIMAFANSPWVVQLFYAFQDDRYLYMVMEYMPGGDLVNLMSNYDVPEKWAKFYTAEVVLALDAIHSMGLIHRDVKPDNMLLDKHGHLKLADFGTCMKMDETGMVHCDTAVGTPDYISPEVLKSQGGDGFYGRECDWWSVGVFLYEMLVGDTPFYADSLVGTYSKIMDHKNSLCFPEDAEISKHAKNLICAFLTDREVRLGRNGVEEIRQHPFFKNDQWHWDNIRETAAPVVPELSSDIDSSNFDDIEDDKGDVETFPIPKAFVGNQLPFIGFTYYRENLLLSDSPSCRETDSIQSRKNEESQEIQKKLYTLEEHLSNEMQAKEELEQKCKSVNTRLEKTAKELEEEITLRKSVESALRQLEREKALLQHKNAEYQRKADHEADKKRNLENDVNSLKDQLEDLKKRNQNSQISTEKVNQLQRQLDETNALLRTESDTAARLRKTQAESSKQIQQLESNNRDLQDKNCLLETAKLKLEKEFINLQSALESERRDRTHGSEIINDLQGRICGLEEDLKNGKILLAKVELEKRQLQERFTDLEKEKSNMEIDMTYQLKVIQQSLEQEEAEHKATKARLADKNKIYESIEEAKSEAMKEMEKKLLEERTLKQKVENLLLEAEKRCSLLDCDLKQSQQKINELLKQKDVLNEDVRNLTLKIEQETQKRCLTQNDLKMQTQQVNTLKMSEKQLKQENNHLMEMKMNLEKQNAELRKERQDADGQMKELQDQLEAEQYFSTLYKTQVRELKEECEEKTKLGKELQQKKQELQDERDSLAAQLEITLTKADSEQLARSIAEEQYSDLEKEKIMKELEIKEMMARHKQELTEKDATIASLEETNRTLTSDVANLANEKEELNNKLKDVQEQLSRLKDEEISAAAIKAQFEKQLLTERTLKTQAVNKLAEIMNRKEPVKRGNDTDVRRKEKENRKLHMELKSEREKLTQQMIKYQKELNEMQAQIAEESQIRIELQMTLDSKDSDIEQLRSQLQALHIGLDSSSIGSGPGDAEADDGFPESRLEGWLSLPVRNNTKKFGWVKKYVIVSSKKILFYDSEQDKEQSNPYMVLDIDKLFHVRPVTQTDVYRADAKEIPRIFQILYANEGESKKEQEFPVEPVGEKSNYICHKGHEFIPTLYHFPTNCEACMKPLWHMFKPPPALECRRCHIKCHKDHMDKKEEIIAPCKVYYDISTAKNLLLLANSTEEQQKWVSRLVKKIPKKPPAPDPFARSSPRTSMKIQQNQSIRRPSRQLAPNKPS
ROCK1, sequence (Q13464 whole entry): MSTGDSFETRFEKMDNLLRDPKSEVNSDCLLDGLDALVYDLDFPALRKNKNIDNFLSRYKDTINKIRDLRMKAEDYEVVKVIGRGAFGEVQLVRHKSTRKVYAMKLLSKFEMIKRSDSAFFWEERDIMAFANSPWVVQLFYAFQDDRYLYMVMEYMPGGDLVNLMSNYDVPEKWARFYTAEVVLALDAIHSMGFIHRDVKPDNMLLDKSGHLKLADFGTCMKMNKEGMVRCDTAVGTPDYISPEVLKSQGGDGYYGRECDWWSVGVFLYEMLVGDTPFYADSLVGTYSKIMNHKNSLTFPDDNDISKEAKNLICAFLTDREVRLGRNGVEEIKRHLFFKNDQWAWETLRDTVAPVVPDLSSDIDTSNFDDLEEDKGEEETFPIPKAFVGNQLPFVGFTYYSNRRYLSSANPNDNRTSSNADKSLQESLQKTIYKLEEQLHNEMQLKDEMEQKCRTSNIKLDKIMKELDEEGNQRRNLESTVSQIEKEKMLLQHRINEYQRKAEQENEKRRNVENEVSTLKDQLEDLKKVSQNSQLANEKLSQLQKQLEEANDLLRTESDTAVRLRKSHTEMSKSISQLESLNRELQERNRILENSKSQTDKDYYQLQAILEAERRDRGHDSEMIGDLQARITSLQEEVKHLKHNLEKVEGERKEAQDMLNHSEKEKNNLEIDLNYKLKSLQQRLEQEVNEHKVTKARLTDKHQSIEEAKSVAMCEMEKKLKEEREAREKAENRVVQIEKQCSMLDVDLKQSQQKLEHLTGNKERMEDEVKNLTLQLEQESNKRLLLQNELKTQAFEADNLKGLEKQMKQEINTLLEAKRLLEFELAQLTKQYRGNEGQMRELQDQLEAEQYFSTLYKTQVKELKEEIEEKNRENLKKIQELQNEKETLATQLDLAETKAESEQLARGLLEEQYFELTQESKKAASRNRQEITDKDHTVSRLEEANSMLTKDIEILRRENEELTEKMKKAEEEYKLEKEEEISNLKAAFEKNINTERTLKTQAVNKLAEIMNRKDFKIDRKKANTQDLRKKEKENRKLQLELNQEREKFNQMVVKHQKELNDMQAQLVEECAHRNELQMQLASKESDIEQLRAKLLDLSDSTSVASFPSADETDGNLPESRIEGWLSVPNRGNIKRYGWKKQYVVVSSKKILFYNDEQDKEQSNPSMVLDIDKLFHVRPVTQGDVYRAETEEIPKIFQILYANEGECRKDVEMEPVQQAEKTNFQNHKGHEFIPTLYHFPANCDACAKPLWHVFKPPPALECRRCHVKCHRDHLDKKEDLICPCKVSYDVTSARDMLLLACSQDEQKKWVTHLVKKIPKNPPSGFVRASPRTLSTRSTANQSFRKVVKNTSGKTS

`N#CCC1(n2cc(-c3ncnc4[nH]ccc34)c(O)n2)CN(S(=O)(=O)C2CC2)C1` [Example 58, 2-(1-(cyclopropylsulfonyl)-3-(3-hydroxy-4-(7H-pyrrolo[2,3-d]pyrimidin-4-yl)-1H-pyrazol-1-yl)azetidine-3-yl)acetonitrile]: the IC50 at ROCK1 is under 50 nM; against ROCK2, over 100 nM.

For `CCS(=O)(=O)N1CC(CC#N)(n2cc(-c3cc(-c4cnn(C)c4)cn4ncnc34)c(N)n2)C1` [Example 81], the IC50 against ROCK1 and against ROCK2 was over 100 nM in each case.

Consider `N#CCC1(n2cc(-c3ncnc4[nH]ccc34)c(N)n2)CN(C(=O)N[C@H]2CC2(F)F)C1` [Example 20, (S)-3-(3-amino-4-(7H-pyrrolo[2,3-d]pyrimidin-4-yl)-1H-pyrazol-1-yl)-3-(cyanomethyl)-N-(2,2-difluorocyclopropyl)azetidine-1-formamide], for which the IC50 on ROCK1 and against ROCK2 was under 10 nM throughout.

For the compound `CC(C)NC(=O)N1CC(CC#N)(n2cc(-c3ncnc4[nH]ccc34)c(N)n2)C1` [Example 15, 3-(3-amino-4-(7H-pyrrolo[2,3-d]pyrimidin-4-yl)-1H-pyrazol-1-yl)-3-(cyanomethyl)-N-isopropylaza-1-formamide], the IC50 against ROCK1 and on ROCK2 was under 50 nM each time.

On to `N#CCN1CC(CC#N)(n2cc(-c3ncnc4[nH]ccc34)c(N)n2)C1` [Example 29, 2,2′-(3-(3-amino-4-(7H-pyrrolo[2,3-d]pyrimidin-4-yl)-1H-pyrazol-1-yl)azetidine-1,3-diyl)diacetonitrile], for which the IC50 against ROCK1 and at ROCK2 was under 10 nM in each case.

Turning to `CS(=O)(=O)N1CC(CC#N)(n2cc(-c3cc(NC4CCOCC4)ncn3)c(N)n2)C1` [Example 75, 2-(3-(3-amino-4-(6-((tetrahydro-2H-pyran-4-yl)amino)pyrimidin-4-yl)-1H-pyrazol-1-yl)-1-(methylsulfonyl)azetidine-3-yl)acetonitrile], the IC50 against ROCK1 and against ROCK2 was over 100 nM in each case.

As to `N#CCC(=O)N1CC(CC#N)(n2cc(-c3ncnc4[nH]ccc34)c(N)n2)C1` [Example 21, 3-(3-(3-amino-4-(7H-pyrrolo[2,3-d]pyrimidin-4-yl)-1H-pyrazol-1-yl)-3-(cyanomethyl)azetidine-1-yl]-3-oxopropionitrile], the IC50 was under 5 nM against ROCK1 and under 10 nM against ROCK2.

Regarding `N#CCC1(n2cc(-c3ncnc4[nH]ccc34)c(N)n2)CN(C(=O)C2(C(F)(F)F)CC2)C1` [Example 25, 2-(3-(3-amino-4-(7H-pyrrolo[2,3-d]pyrimidin-4-yl)-1H-pyrazol-1-yl)-1-(1-(trifluoromethyl)cyclopropane-1-carbonyl)azetidine-3-yl)acetonitrile], the IC50 against ROCK1 and on ROCK2 was under 10 nM in each case.

With `CN(C)CCNS(=O)(=O)N1CC(CC#N)(n2cc(-c3ncnc4[nH]ccc34)c(N)n2)C1` [Example 52, 3-(3-amino-4-(7H-pyrrolo[2,3-d]pyrimidin-4-yl)-1H-pyrazol-1-yl)-3-(cyanomethyl)-N-(2-(dimethylamino)ethyl)azetidine-1-sulfonamide], the IC50 against ROCK1 and against ROCK2 was under 10 nM each time.

As to `CCNC(=O)N1CC(CC#N)(n2cc(-c3ncnc4[nH]ccc34)c(N)n2)C1` [Example 14, 3-(3-amino-4-(7H-pyrrolo[2,3-d]pyrimidin-4-yl)-1H-pyrazol-1-yl)-3-(cyanomethyl)-N-ethylazetidine-1-formamide], the IC50 against ROCK1 and at ROCK2 was under 5 nM each time.

`N#CCC1(n2cc(-c3ncnc4[nH]ccc34)c(N)n2)CN(C(=O)C2(F)CC2)C1` [Example 24, 2-(3-(3-amino-4-(7H-pyrrolo[2,3-d]pyrimidin-4-yl)-1H-pyrazol-1-yl)-1-(1-fluorocyclopropane-1-carbonyl)azetidine-3-yl)acetonitrile]: the IC50 on ROCK1 and against ROCK2 was under 50 nM in each case.

As for `CN(C)CC(=O)N1CC(CC#N)(n2cc(-c3ncnc4[nH]ccc34)c(N)n2)C1` [Example 28, 2-(3-(3-amino-4-(7H-pyrrolo[2,3-d]pyrimidin-4-yl)-1H-pyrazol-1-yl)-1-(dimethylglycine)azetidine-3-yl)acetonitrile], the half-inhibitory concentration (IC50) at ROCK1 and at ROCK2 was under 50 nM throughout.

`N#CCC1(n2cc(-c3ncnc4[nH]ccc34)c(N)n2)CN(C(=O)C2(C#N)CC2)C1` [Example 26, 1-(3-(3-amino-4-(7H-pyrrolo[2,3-d]pyrimidin-4-yl)-1H-pyrazol-1-yl)-3-(cyanomethyl)azetidine-1-carbonyl)cyclopropane-1-nitrile]: the IC50 at ROCK1 and against ROCK2 was under 10 nM throughout.

Turning to `COCCNS(=O)(=O)N1CC(CC#N)(n2cc(-c3ncnc4[nH]ccc34)c(N)n2)C1` [Example 48, 3-(3-amino-4-(7H-pyrrolo[2,3-d]pyrimidin-4-yl)-1H-pyrazol-1-yl)-3-(cyanomethyl)-N-(2-methoxyethyl)azetidine-1-sulfonamide], the results for the IC50 on ROCK1 and against ROCK2 were under 50 nM and under 10 nM, respectively.

For `CS(=O)(=O)N1CC(CC#N)(n2cc(-c3ccnc(NCCO)n3)c(N)n2)C1` [Example 78], the IC50 on ROCK1 and at ROCK2 was over 100 nM throughout.

In the case of `CNC(=O)c1nn(C2(CC#N)CN(S(=O)(=O)C3CC3)C2)cc1-c1ncnc2[nH]ccc12` [Example 65, 1-(3-(cyanomethyl)-1-(cyclopropylsulfonyl)azetidine-3-yl)-N-methyl-4-(7H-pyrrolo[2,3-d]pyrimidin-4-yl)-1H-pyrazol-3-formamide], the IC50 on ROCK1 and against ROCK2 was over 100 nM each time.

For `CC(C)S(=O)(=O)N1CC(CC#N)(n2cc(-c3ncnc4[nH]ccc34)c(O)n2)C1` [Example 57, 2-(3-(3-hydroxy-4-(7H-pyrrolo[2,3-d]pyrimidin-4-yl)-1H-pyrazol-1-yl)-1-(isopropylsulfonyl)azetidine-3-yl)acetonitrile], the IC50 is under 50 nM against ROCK1 and over 100 nM against ROCK2.

For `CNS(=O)(=O)N1CC(CC#N)(n2cc(-c3ncnc4[nH]ccc34)c(N)n2)C1` [Example 49, 3-(3-amino-4-(7H-pyrrolo[2,3-d]pyrimidin-4-yl)-1H-pyrazol-1-yl)-3-(cyanomethyl)-N-methylazetidine-1-sulfonamide], the IC50 at ROCK1 and at ROCK2 was under 10 nM throughout.

For `C[C@H](N)C(=O)N1CC(CC#N)(n2cc(-c3ncnc4[nH]ccc34)c(N)n2)C1` [Example 23, 2-(1-alaninyl-3-(3-amino-4-(7H-pyrrolo[2,3-d]pyrimidin-4-yl)-1H-pyrazol-1-yl)azetidine-3-yl)acetonitrile], the IC50 on ROCK1 and against ROCK2 was under 50 nM each time.

Take `N#CCC1(n2cc(-c3ncnc4[nH]ccc34)c(N)n2)CN(S(=O)(=O)NCCCl)C1` [Example 46, 3-(3-amino-4-(7H-pyrrolo[2,3-d]pyrimidin-4-yl)-1H-pyrazol-1-yl)-N-(2-chloroethyl)-3-(cyanomethyl)azetidine-1-sulfonamide]: the results for the IC50 at ROCK1 and at ROCK2 were under 10 nM and under 5 nM, respectively.

Consider `CCS(=O)(=O)N1CC(CC#N)(n2cc(-c3cc(NC)nc4ccnn34)c(N)n2)C1` [Example 85, 2-(3-(3-amino-4-(5-(methylamino)pyrazolo[1,5-a]pyrimidin-7-yl)-1H-pyrazol-1-yl)-1-(ethylsulfonyl)azetidine-3-yl)acetonitrile], for which the IC50 against ROCK1 and on ROCK2 was over 100 nM in each case.

As to `N#CCC1(n2cc(-c3ncnc4[nH]ccc34)c(N)n2)CN(S(=O)(=O)N2CC2)C1` [Example 47, 2-(3-(3-amino-4-(7H-pyrrolo[2,3-d]pyrimidin-4-yl)-1H-pyrazol-1-yl)-1-(aziridin-1-ylsulfonyl)azetidine-3-yl)acetonitrile], the IC50 on ROCK1 and against ROCK2 was under 5 nM throughout.

On to `CCS(=O)(=O)N1CC(CC#N)(n2cc(-c3cc(Cl)cn4ncnc34)c(N)n2)C1` [Example 83, 2-(3-(3-amino-4-(6-chloro-[1,2,4]triazolo[1,5-a]pyridin-8-yl)-1H-pyrazol-1-yl)-1-(ethylsulfonyl)azetidine-3-yl)acetonitrile], for which the IC50 against ROCK1 and on ROCK2 was over 100 nM each time.

For the compound `CCS(=O)(=O)N1CC(CC#N)(n2cc(-c3ncnc4[nH]ccc34)c(C(=O)NC)n2)C1` [Example 63, 1-(3-(cyanomethyl)-1-(ethylsulfonyl)azetidine-3-yl)-N-methyl-4-(7H-pyrrolo[2,3-d]pyrimidin-4-yl)-1H-pyrazol-3-formamide], the IC50 against ROCK1 and at ROCK2 was over 100 nM each time.

Regarding `CS(=O)(=O)N1CC(CC#N)(n2cc(-c3ncnc(NC4CCOCC4)n3)c(N)n2)C1` [Example 72, 2-(3-(3-amino-4-(4-((tetrahydro-2H-pyran-4-yl)amino)-1,3,5-triazin-2-yl)-1H-pyrazol-1-yl)-1-(methylsulfonyl)azetidine-3-yl)acetonitrile], the IC50 against ROCK1 and on ROCK2 was over 100 nM each time.

On to `CS(=O)(=O)N1CC(CC#N)(n2cc(-c3cc(NCCO)ncn3)c(N)n2)C1` [Example 74, 2-(3-(3-amino-4-(6-((2-hydroxyethyl)amino)pyrimidin-4-yl)-1H-pyrazol-1-yl)-1-(methylsulfonyl)azetidine-3-yl)acetonitrile], for which the IC50 on ROCK1 and at ROCK2 was over 100 nM in each case.

For the compound `CN1CCC(Nc2ncnc(-c3cn(C4(CC#N)CN(S(C)(=O)=O)C4)nc3N)n2)CC1` [Example 71, 2-(3-(3-amino-4-(4-((1-methylpiperidin-4-yl)amino)-1,3,5-triazin-2-yl)-1H-pyrazol-1-yl)-1-(methylsulfonyl)azetidine-3-yl)acetonitrile], the IC50 against ROCK1 and at ROCK2 was over 100 nM in each case.

Turning to `N#CCC1(n2cc(-c3ncnc4[nH]ccc34)c(N)n2)CN(C(=O)C2CC(F)(F)C2)C1` [Example 32, 2-(3-(3-amino-4-(7H-pyrrolo[2,3-d]pyrimidin-4-yl)-1H-pyrazol-1-yl)-1-(3,3-difluorocyclobutane-1-carbonyl)azetidine-3-yl)acetonitrile], the results for the IC50 at ROCK1 and against ROCK2 were under 5 nM and under 10 nM, respectively.

Source of the values: patent US20260224571A1, “AZACYCLOALKANE COMPOUND AND PHARMACEUTICAL COMPOSITION, AND USE THEREOF” (Prime Gene Therapeutics Co., Ltd., priority 2023, published 2026).
